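Five concentrations, 48 hours, 96-well plates. GI50 is the concentration that inhibits growth by half.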 Activity calls are given as the source filed them. Cut-off read from the data, not from the text of the source: active = GI50 up to about 1.1 µM and inactive = higher. Bounds are passed on as bounds.

Test systems include SW-620; SF-539; SK-MEL-28; RXF 393; Hs-578T; UACC-257; SR; CCRF-CEM; UACC-62; MOLT-4; Malme-3M; SN12C; COLO 205; CAKI-1; A498; A549; HCT-15; HT-29; 786-0; SNB-75.
Holding throughout (assay): NCI-60 cell line screen, 48 h

With `CCOc1ccc2c(ccc(/C=C/c3cc(C)c4cccnc4c3O)[n+]2C)c1`, the GI50 with SW-620 was 0.459 µM (active); in the assay with SF-539 it was 0.485 µM (active); in the assay on SK-MEL-28 it was 0.792 µM (active); in the assay with RXF 393, 3.71 µM (inactive); with Hs-578T it was 6.82 µM (inactive); in the assay with UACC-257, 0.933 µM (active). The GI50 in the assay on SR was 0.153 µM (active); in the assay on CCRF-CEM, 0.0673 µM (active); with UACC-62, 1.53 µM (inactive); in the assay with MOLT-4, 0.158 µM (active); in the assay on Malme-3M, 1.94 µM (inactive); in the assay with SN12C, 0.274 µM (active). The GI50 with COLO 205 was 0.624 µM (active); with CAKI-1 it was 4.29 µM (inactive); in the assay with A498, 1.67 µM (inactive); in the assay with A549, 1.33 µM (inactive); in the assay with HCT-15, 3.66 µM; with HT-29, 0.378 µM (active). In addition, the GI50 is 0.53 µM (active) in the assay on 786-0 and 2.29 µM (inactive) in the assay on SNB-75.
On to `CCCCCCCCCCCCC/C=C(/COCC[N+](C)(C)C)OC(C)=O.CCCCCCCCCCCCCC/C(=C/OCC[N+](C)(C)C)OC(C)=O`, for which the GI50 is 2.92 µM (inactive) in the assay with SW-620; 1.85 µM (inactive) with SF-539; 6.5 µM (inactive) in the assay on SK-MEL-28; 0.716 µM (active) in the assay on RXF 393; 1.91 µM (inactive) in the assay with Hs-578T; 2.99 µM (inactive) with UACC-257. Moreover, the GI50 was 1.57 µM (inactive) in the assay on SR; 1.76 µM (inactive) in the assay on CCRF-CEM; 1.74 µM (inactive) with UACC-62; 2.29 µM (inactive) with MOLT-4; 5.68 µM (inactive) with Malme-3M; 3.01 µM (inactive) in the assay with SN12C. Further, the GI50 in the assay with COLO 205 is 1.48 µM (inactive); with CAKI-1, 1.58 µM (inactive); in the assay with A498, 2.49 µM (inactive); in the assay on A549 it was 1.71 µM (inactive); in the assay with HCT-15 it was 3.43 µM; in the assay on HT-29, 0.356 µM (active). Moreover, the GI50 in the assay with 786-0 is 1.08 µM (active); in the assay with SNB-75, 2.54 µM (inactive).
With `COc1ccc(C2=NN(C(=N)S)C(c3ccccc3)C2)cc1` (stereo not given), the GI50 was 52.2 µM (inactive) in the assay with SW-620; 61.5 µM (inactive) with SF-539; 91 µM (inactive) with SK-MEL-28; 24.4 µM (inactive) in the assay with RXF 393; 75.7 µM (inactive) in the assay on Hs-578T; 29.2 µM (inactive) in the assay on UACC-257. Also, the GI50 with SR is 23.2 µM (inactive); in the assay with CCRF-CEM it was 33.2 µM (inactive); with UACC-62 it was 35.3 µM (inactive); in the assay on MOLT-4, 28 µM (inactive); in the assay on Malme-3M, 30.5 µM (inactive); in the assay on SN12C, 39.3 µM (inactive). The GI50 in the assay on COLO 205 was 25.8 µM (inactive); in the assay on CAKI-1, 40.6 µM (inactive); in the assay with A498, 22.8 µM (inactive); with A549 it was 34.8 µM (inactive); in the assay with HCT-15, 33.6 µM; with HT-29, 38.9 µM (inactive). Further, the results for the GI50 in the assay on 786-0 and in the assay on SNB-75 were 38.3 µM (inactive) and 29 µM (inactive), respectively.
For the molecule `CC(CCC=O)CCOCc1ccccc1` (stereo not given), the GI50 with SW-620 was > 80.7 µM (inactive); with SF-539, > 100 µM (inactive); with SK-MEL-28, > 100 µM (inactive); in the assay with RXF 393, > 100 µM (inactive); in the assay on Hs-578T, > 100 µM (inactive); in the assay with UACC-257, 36.5 µM (inactive). Further, the GI50 was > 54.5 µM (inactive) with SR; > 48.5 µM (inactive) in the assay with CCRF-CEM; > 100 µM (inactive) in the assay on UACC-62; > 40.7 µM (inactive) in the assay on MOLT-4; > 100 µM (inactive) in the assay on Malme-3M; > 100 µM (inactive) with SN12C. The GI50 with COLO 205 was > 100 µM (inactive); with CAKI-1 it was 36.8 µM (inactive); with A498, > 100 µM (inactive); with A549, > 87.5 µM (inactive); with HCT-15 it was more than 100 µM; in the assay with HT-29, > 100 µM (inactive). In addition, the GI50 in the assay on 786-0 and with SNB-75 was > 100 µM (inactive) in each case.
Consider `Cc1ccc(NC(=S)N/N=C2\C(=O)Nc3ccccc32)cc1`, for which the GI50 with SW-620 is > 100 µM (inactive); in the assay on SF-539, > 100 µM (inactive); with SK-MEL-28, 4.76 µM (inactive); in the assay with RXF 393, 84.7 µM (inactive); with Hs-578T it was > 100 µM (inactive); in the assay with UACC-257 it was > 100 µM (inactive). Moreover, the GI50 was 87.7 µM (inactive) in the assay on SR; 72.1 µM (inactive) in the assay on CCRF-CEM; > 100 µM (inactive) in the assay with UACC-62; > 100 µM (inactive) in the assay on MOLT-4; > 100 µM (inactive) in the assay with Malme-3M; > 100 µM (inactive) with SN12C. Further, the GI50 with COLO 205 was > 100 µM (inactive); in the assay with CAKI-1, > 100 µM (inactive); with A498, 51.6 µM (inactive); in the assay on A549, > 100 µM (inactive); in the assay with HCT-15, more than 100 µM; in the assay on HT-29, > 100 µM (inactive). Besides, the GI50 in the assay with 786-0 and in the assay with SNB-75 was > 100 µM (inactive) in each case.
With `O=C1Nc2cccc(Cl)c2/C1=C\c1c(-c2ccccc2)nc2n1CCS2`, the GI50 was 14.9 µM (inactive) in the assay with SW-620; 17.1 µM (inactive) in the assay with SF-539; 21.2 µM (inactive) in the assay with SK-MEL-28; 19.6 µM (inactive) in the assay on RXF 393; 18.9 µM (inactive) in the assay with Hs-578T; 21.4 µM (inactive) with UACC-257. Besides, the GI50 in the assay on SR is 19.8 µM (inactive); with CCRF-CEM, 15 µM (inactive); with UACC-62, 17.9 µM (inactive); in the assay with MOLT-4, 10.6 µM (inactive); in the assay with Malme-3M it was 20.2 µM (inactive); in the assay with SN12C, 16 µM (inactive). The GI50 with COLO 205 is 18.8 µM (inactive); in the assay with CAKI-1, 22.9 µM (inactive); in the assay on A498 it was 20.4 µM (inactive); with A549, 18.6 µM (inactive); in the assay on HCT-15, 18.9 µM; in the assay on HT-29 it was 20.3 µM (inactive). Also, the GI50 in the assay with 786-0 was 18 µM (inactive); in the assay on SNB-75 it was 24 µM (inactive).
`O=C(O)CCO/N=C1/C(=C2/C(=O)Nc3ccccc32)Nc2ccccc21`: the GI50 in the assay on SW-620 is 29.7 µM (inactive); in the assay on SF-539, 38.3 µM (inactive); with SK-MEL-28, 33.3 µM (inactive); in the assay on RXF 393, 3.61 µM (inactive); in the assay with Hs-578T, 21.1 µM (inactive); in the assay with UACC-257, 39.5 µM (inactive). Besides, the GI50 with SR is 12 µM (inactive); in the assay with CCRF-CEM it was 13.8 µM (inactive); in the assay on UACC-62 it was 14.7 µM (inactive); with MOLT-4 it was 17.1 µM (inactive); in the assay with Malme-3M, 54.5 µM (inactive); in the assay with SN12C, 23.7 µM (inactive). The GI50 in the assay with COLO 205 was 18.2 µM (inactive); in the assay on CAKI-1, 4.97 µM (inactive); in the assay on A498 it was 5.6 µM (inactive); with A549 it was 22.5 µM (inactive); with HCT-15, 6.58 µM; in the assay with HT-29 it was 25 µM (inactive). In addition, the figures for the GI50 with 786-0 and in the assay with SNB-75 were 21.5 µM (inactive) and 13.8 µM (inactive), respectively.
As for `COc1ccc2c(c1)CN([C@@H](C)[C@H]1CC[C@H]3[C@@H]4CC[C@H]5C[C@@H](O)CC[C@]5(C)[C@H]4CC[C@]13C)CO2`, the GI50 was 2.92 µM (inactive) in the assay with SW-620; 1.59 µM (inactive) with SF-539; 2.48 µM (inactive) in the assay with SK-MEL-28; 1.19 µM (inactive) with RXF 393; 1.61 µM (inactive) in the assay with Hs-578T; 2.2 µM (inactive) with UACC-257. The GI50 in the assay on SR was 0.321 µM (active); in the assay with CCRF-CEM it was 1.85 µM (inactive); in the assay with UACC-62 it was 2 µM (inactive); in the assay with MOLT-4, 1.03 µM (active); with Malme-3M, 1.53 µM (inactive); with SN12C, 8.57 µM (inactive). For the same molecule, the GI50 in the assay with COLO 205 was 2 µM (inactive); with CAKI-1, 4.75 µM (inactive); in the assay on A498 it was 1.88 µM (inactive); with A549 it was 1.76 µM (inactive); in the assay with HCT-15 it was 1.32 µM; in the assay with HT-29, 0.964 µM (active). Further, the values for the GI50 in the assay on 786-0 and in the assay on SNB-75 were 1.3 µM (inactive) and 2.37 µM (inactive), respectively.
In the case of `N#Cc1nc(CCC(C(=O)O)N2C(=O)c3ccccc3C2=O)oc1N` (stereo not given), the GI50 in the assay with SW-620, in the assay with SF-539, with SK-MEL-28, with RXF 393, in the assay with Hs-578T and in the assay on UACC-257 was > 100 µM (inactive) throughout. In addition, the GI50 with SR, in the assay with CCRF-CEM, in the assay with UACC-62, with MOLT-4, in the assay on Malme-3M and in the assay with SN12C was > 100 µM (inactive) each time. The GI50 in the assay on COLO 205 is > 100 µM (inactive); in the assay with CAKI-1, > 100 µM (inactive); in the assay on A498, > 100 µM (inactive); in the assay on A549, 41.7 µM (inactive); in the assay with HCT-15, more than 100 µM; with HT-29 it was > 100 µM (inactive). Besides, the GI50 in the assay with 786-0 and in the assay with SNB-75 was > 100 µM (inactive) throughout.
As for `Nc1ccc(C(=O)CC(N)C(=O)O)cc1O` (stereo not given), the GI50 in the assay with SW-620, in the assay with SF-539, in the assay with SK-MEL-28, in the assay with RXF 393, in the assay with Hs-578T and with UACC-257 was > 100 µM (inactive) in each case. Moreover, the GI50 in the assay with SR, with CCRF-CEM, in the assay on UACC-62, with MOLT-4, in the assay with Malme-3M and with SN12C was > 100 µM (inactive) throughout. In addition, the GI50 was > 100 µM (inactive) in the assay on COLO 205; > 100 µM (inactive) in the assay on CAKI-1; > 100 µM (inactive) in the assay on A498; > 100 µM (inactive) in the assay with A549; more than 100 µM in the assay on HCT-15; > 100 µM (inactive) with HT-29. For the same molecule, the GI50 with 786-0 and in the assay on SNB-75 was > 100 µM (inactive) in each case.
